Test results from patent US8961873B2, “Antinfection protecting healthcare workers to prevent spreading of communicable and nosocomial infections” (priority 2011, dated 2015).

Settings: the rest remains in inactive suspension

With `[Ca+2].[F-].[F-]` [CaF2, Calcium-Fluoride] the “amount going into solution in water” value was 16 ppm.
